# According to US5603943A, “Nasally administrable compositions” (Dott Research Laboratory, priority 1994, dated 1997):
# Values joined by “and” are separate entries in the source; they are usually repeats but may differ in a detail not shown here. Equal entries are not always repeated.
# Key:
# [1] = Salmon calcitonin blood concentration, nasal powder with hydroxyapatite (Test Example 3); type: in vivo, healthy male adults (human); conditions: for Concentration of salmon calcitonin in the blood: nasal 200 MRC (IU)/25 mg, individual cases No. 4-7 in order
# Protocol: (§1) A nasally administrable composition in powdery form was prepared by formulating salmon calcitonin as a physiologically active peptide at the rate of 200 MRC (IU) per 25 mg with hydroxyapatite as a carrier having a mean particle size ranging from 40 to 45 μm.
# (§2) The resulting composition was nasally administered once at a dose of 25 mg to four healthy male adults and the blood (2.5 ml) was collected from each of the tested adults prior to administration and then at 5, 10, 15, 20, 30, 45, 60, 90, 120 and 180 minutes after administration. The concentration of the salmon calcitonin in each of the collected blood samples was assayed with a standard RIA assay kit.
# [2] = Salmon calcitonin blood concentration, nasal powder with hydroxyapatite (Test Example 2); type: in vivo, healthy male adults (human); conditions: for Concentration of salmon calcitonin in the blood: nasal 200 MRC (IU)/25 mg, individual cases No. 1-3 in order
# Protocol: as §1
# as §2, with “three” for “four”
# [3] = Salmon calcitonin blood concentration, nasal powder with aluminum hydroxide (Test Example 6); type: in vivo, healthy male adults (human); conditions: for Concentration of salmon calcitonin in the blood: nasal 200 MRC (IU)/25 mg, individual cases No. 14-16 in order
# Protocol: A nasally administrable composition in powdery form was prepared by formulating salmon calcitonin as a physiologically active peptide at the rate of 200 MRC (IU) per 25 mg with aluminum hydroxide as a carrier having a mean particle size ranging from 40 to 45 μm.
# as §2, with “three” for “four”
# [4] = Nasal absorption, clinical effect and irritation (general statement); type: in vivo
# [5] = Salmon calcitonin blood concentration, nasal powder with magnesium stearate (Test Example 4); type: in vivo, healthy male adults (human)
# Protocol: A nasally administrable composition in powdery form was prepared by formulating salmon calcitonin as a physiologically active peptide at the rate of 200 MRC (IU) per 25 mg with magnesium stearate as a carrier having a mean particle size ranging from 40 to 45 μm.
# as §2, with “mg to three healthy male” for “mg to four healthy male”, “in each -of the collected” for “in each of the collected”
# [6] = relative, among calcitonins; cited from earlier work
# [7] = Salmon calcitonin blood concentration, nasal powder with calcium carbonate (Test Example 5); type: in vivo, healthy male adults (human)
# Protocol: A nasally administrable composition in powdery form was prepared by formulating salmon calcitonin as a physiologically active peptide at the rate of 200 MRC (IU) per 25 mg with calcium carbonate as a carrier having a mean particle size ranging from 40 to 45 μm.
# as §2, with “three” for “four”
# [8] = powder in specific carrier, nasal route
substance,measurement,setting,value
salmon calcitonin,absorption through the nasal cavity,[1],high extent of absorption
same,Concentration of salmon calcitonin in the blood,[1]; 0 min (predose),~ 7 pg/ml
same,Concentration of salmon calcitonin in the blood,[1]; 5 min,65.30 pg/mL and 66.02 pg/mL and 57.83 pg/mL and 72.72 pg/mL
same,Concentration of salmon calcitonin in the blood,[1]; 10 min,98.88 pg/mL and 95.22 pg/mL and 83.75 pg/mL and 130.21 pg/mL
same,Concentration of salmon calcitonin in the blood,[1]; 15 min,96.96 pg/mL and 106.69 pg/mL and 91.55 pg/mL and 139.54 pg/mL
same,Concentration of salmon calcitonin in the blood,[1]; 20 min,59.91 pg/mL and 102.60 pg/mL and 63.17 pg/mL and 122.29 pg/mL
same,Concentration of salmon calcitonin in the blood,[1]; 30 min,46.96 pg/mL and 71.13 pg/mL and 48.09 pg/mL and 91.38 pg/mL
same,Concentration of salmon calcitonin in the blood,[1]; 45 min,23.89 pg/mL and 57.42 pg/mL and 30.95 pg/mL and 45.91 pg/mL
same,Concentration of salmon calcitonin in the blood,[1]; 60 min,14.31 pg/mL and 33.21 pg/mL and 19.56 pg/mL and 15.62 pg/mL
same,Concentration of salmon calcitonin in the blood,[1]; 90 min,~ 7 pg/ml (2×) and 13.06 pg/ml and 10.39 pg/ml
same,Concentration of salmon calcitonin in the blood,[1]; 120 min,~ 7 pg/ml and 8.76 pg/ml
same,Concentration of salmon calcitonin in the blood,[1]; 180 min,~ 7 pg/ml
same,time of maximum concentration,[1]; nasal,reaching maximum in a short time after administration
same,Concentration of salmon calcitonin in the blood,[2]; 0 min (predose),~ 7 pg/ml
same,Concentration of salmon calcitonin in the blood,[2]; 5 min,55.50 pg/mL and 14.05 pg/mL and 76.25 pg/mL
same,Concentration of salmon calcitonin in the blood,[2]; 10 min,93.05 pg/mL and 44.12 pg/mL and 107.67 pg/mL
same,Concentration of salmon calcitonin in the blood,[2]; 15 min,49.84 pg/mL and 77.03 pg/mL and 118.26 pg/mL
same,Concentration of salmon calcitonin in the blood,[2]; 20 min,65.95 pg/mL and 59.36 pg/mL and 95.07 pg/mL
same,Concentration of salmon calcitonin in the blood,[2]; 30 min,21.08 pg/mL and 47.69 pg/mL and 102.78 pg/mL
same,Concentration of salmon calcitonin in the blood,[2]; 45 min,12.54 pg/mL and 24.68 pg/mL and 60.68 pg/mL
same,Concentration of salmon calcitonin in the blood,[2]; 60 min,13.50 pg/mL and 19.43 pg/mL and 42.97 pg/mL
same,Concentration of salmon calcitonin in the blood,[2]; 90 min,7.92 pg/ml and ~ 7 pg/ml and 21.78 pg/ml
same,Concentration of salmon calcitonin in the blood,[2]; 120 min,~ 7 pg/ml and 12.75 pg/ml
same,Concentration of salmon calcitonin in the blood,[2]; 180 min,~ 7 pg/ml
same,absorption into the blood,[2]; nasal,high degree of absorption
same,Concentration of salmon calcitonin in the blood,[3]; 0 min (predose),~ 7 pg/ml
same,Concentration of salmon calcitonin in the blood,[3]; 5 min,19.75 pg/mL and 26.41 pg/mL and 32.23 pg/mL
same,Concentration of salmon calcitonin in the blood,[3]; 10 min,19.35 pg/mL and 34.82 pg/mL and 24.85 pg/mL
same,Concentration of salmon calcitonin in the blood,[3]; 15 min,14.97 pg/mL and 31.66 pg/mL and 18.68 pg/mL
same,Concentration of salmon calcitonin in the blood,[3]; 20 min,~ 7 pg/ml and 37.63 pg/ml and 12.92 pg/ml
same,Concentration of salmon calcitonin in the blood,[3]; 30 min,9.15 pg/ml and 24.79 pg/ml and ~ 7 pg/ml
same,Concentration of salmon calcitonin in the blood,[3]; 45 min,~ 8 pg/ml and 13.70 pg/ml and ~ 7 pg/ml
same,Concentration of salmon calcitonin in the blood,[3]; 60 min,~ 7 pg/ml and 12.12 pg/ml
same,absorption,[3]; nasal,high extent of absorption
same,concentration in the blood versus injection,[3]; nasal,simlar to that obtainable by injection
same,bioavailability and concentration in blood,[4]; homogeneously dispersed in and adsorbed onto the carrier,high both in bioavailability and concentration in blood
same,absorption into the body,[4]; [8],well absorbed into the body
same,clinical effects,[4]; [8],high clinical effects
same,absorption,[5],high extent of absorption
same,stability,[6],relatively low in stability
same,absorption,[7],high extent of absorption
